Legend:
D(3) dopamine receptor [1] = target: D(3) dopamine receptor (Rattus norvegicus, UniProt P19020); experiment: Binding affinity towards rat Dopamine receptor D3 in Sf9 cells expressing in recombinant baculovirus (Bv) using [125I]IABN as radioligand
D(2) dopamine receptor = D(2) dopamine receptor (Rattus norvegicus, UniProt P61169); experiment: biochemical
D(3) dopamine receptor [2] = target: D(3) dopamine receptor (Homo sapiens, UniProt P35462)
Chain of D(3) dopamine receptor (Homo sapiens, UniProt P35462) (P35462 whole entry): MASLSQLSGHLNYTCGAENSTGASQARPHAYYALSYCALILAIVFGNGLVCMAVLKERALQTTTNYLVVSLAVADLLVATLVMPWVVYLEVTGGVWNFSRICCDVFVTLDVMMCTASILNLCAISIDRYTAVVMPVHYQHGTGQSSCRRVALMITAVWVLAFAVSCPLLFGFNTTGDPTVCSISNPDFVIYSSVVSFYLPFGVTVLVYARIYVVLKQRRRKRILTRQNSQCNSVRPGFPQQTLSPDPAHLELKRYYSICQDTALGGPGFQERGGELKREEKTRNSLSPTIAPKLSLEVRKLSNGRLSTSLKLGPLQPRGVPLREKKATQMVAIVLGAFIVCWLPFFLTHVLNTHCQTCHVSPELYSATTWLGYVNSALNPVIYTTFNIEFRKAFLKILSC
Description: Antagonistic activity of quinpirole stimulation of mitogenesis in human Dopamine receptor D3 transfected CHO cells

Chain of D(3) dopamine receptor (Rattus norvegicus, UniProt P19020) (P19020 whole entry): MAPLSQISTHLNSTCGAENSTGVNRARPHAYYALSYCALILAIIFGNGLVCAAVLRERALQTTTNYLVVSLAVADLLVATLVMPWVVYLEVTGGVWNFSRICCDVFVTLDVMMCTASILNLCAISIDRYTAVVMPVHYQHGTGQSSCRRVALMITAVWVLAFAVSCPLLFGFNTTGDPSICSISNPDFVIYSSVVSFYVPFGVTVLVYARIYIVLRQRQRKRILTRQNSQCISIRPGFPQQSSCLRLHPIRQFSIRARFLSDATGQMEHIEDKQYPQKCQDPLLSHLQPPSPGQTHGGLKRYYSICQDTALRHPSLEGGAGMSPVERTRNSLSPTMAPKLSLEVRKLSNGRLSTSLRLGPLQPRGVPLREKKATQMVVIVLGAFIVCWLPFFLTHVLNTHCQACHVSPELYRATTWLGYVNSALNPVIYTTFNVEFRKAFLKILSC
Chain of D(2) dopamine receptor (P61169 whole entry): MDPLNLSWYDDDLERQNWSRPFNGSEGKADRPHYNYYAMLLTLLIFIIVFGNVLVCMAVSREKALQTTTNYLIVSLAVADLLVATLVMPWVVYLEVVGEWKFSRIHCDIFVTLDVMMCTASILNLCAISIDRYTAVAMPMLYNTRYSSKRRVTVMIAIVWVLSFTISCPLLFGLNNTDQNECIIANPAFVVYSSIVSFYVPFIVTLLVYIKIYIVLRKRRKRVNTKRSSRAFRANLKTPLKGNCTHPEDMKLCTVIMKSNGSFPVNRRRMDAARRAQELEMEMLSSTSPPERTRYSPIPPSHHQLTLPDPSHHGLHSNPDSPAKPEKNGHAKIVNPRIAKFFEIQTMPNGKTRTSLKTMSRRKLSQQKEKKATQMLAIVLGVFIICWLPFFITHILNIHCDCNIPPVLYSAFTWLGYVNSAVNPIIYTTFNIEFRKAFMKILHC

Compound	Ki (D(3) dopamine receptor [1]) [nM]	Ki (D(2) dopamine receptor) [nM]	IC50 (D(3) dopamine receptor [2]) [nM]
O=C(NCCCCN1CCN(c2cccc(Cl)c2Cl)CC1)c1ccc(-c2ccccn2)cc1	0.6	57.9	–
O=C(NCCCCN1CCN(c2cccc(Cl)c2Cl)CC1)c1cccc2c1-c1ccccc1C2=O	1.6	150	–
O=C(NCCCCN1CCN(c2cccc(Cl)c2Cl)CC1)c1ccc(I)cc1	1.4	87.5	–
O=C(NCCCN1CCN(c2cccc(Cl)c2Cl)CC1)c1cccc2c1-c1ccccc1C2	139	376	–
O=C(NC/C=C\CN1CCN(c2cccc(Cl)c2Cl)CC1)c1cccc2c1-c1ccccc1C2	6.5	10.7	–
O=C1c2ccccc2C(=O)N1CCCCN1CCN(c2cccc(Cl)c2Cl)CC1	4.8	102	–
O=C(NCCCCCN1CCN(c2cccc(Cl)c2Cl)CC1)c1cccc2c1-c1ccccc1C2=O	2	35.3	–
O=C1c2ccccc2C(=O)N1CCCCCN1CCN(c2cccc(Cl)c2Cl)CC1	5.6	86.4	–
O=C(NC/C=C/CN1CCN(c2cccc(Cl)c2Cl)CC1)c1ccc2c(c1)Cc1ccccc1-2	5.9	198	–
Nc1ccc2c(c1)-c1c(cccc1C(=O)NCCCCN1CCN(c3cccc(Cl)c3Cl)CC1)C2	3.5	79.3	–
O=C(NCCCN1CCN(c2cccc(Cl)c2Cl)CC1)C1c2ccccc2-c2ccccc21	34	250	–
O=C(NCC#CCN1CCN(c2cccc(Cl)c2Cl)CC1)c1ccc2c(c1)Cc1ccccc1-2	214	1000	–
O=C(NCCCCN1CCN(c2cccc(Cl)c2Cl)CC1)C1c2ccccc2-c2ccccc21	11.1	55.2	–
O=C(NCCCN1CCN(c2ccccc2)CC1)C1c2ccccc2-c2ccccc21	84.5	1020	–
O=C(NCCCN1CCN(c2cccc(Cl)c2Cl)CC1)c1cccc2c1-c1ccccc1C2=O	43	153	–
O=C(NCC#CCN1CCN(c2cccc(Cl)c2Cl)CC1)c1cccc2c1-c1ccccc1C2	1080	891	–
O=C(NC/C=C/CN1CCN(c2cccc(Cl)c2Cl)CC1)c1cccc2c1-c1ccccc1C2	19	106	–
O=C(NCC#CCN1CCN(c2cccc(Cl)c2Cl)CC1)c1ccccc1	394	1700	–
O=C(NCCCCN1CCN(c2cccc(Cl)c2Cl)CC1)c1cccc2c1-c1ccccc1C2	4.5	134	–
O=C(NCCCCN1CCN(c2cccc(Cl)c2Cl)CC1)c1cc2cc(F)ccc2[nH]1	2.6	–	–
O=C(NC/C=C\CN1CCN(c2cccc(Cl)c2Cl)CC1)c1ccccc1	4.9	20	–
O=C(NC/C=C\CN1CCN(c2cccc(Cl)c2Cl)CC1)c1ccc2c(c1)Cc1ccccc1-2	6	87.3	–
O=C(NCCCCN1CCN(c2cccc(Cl)c2Cl)CC1)c1ccc2c(c1)Cc1ccccc1-2	1.1	911	–
O=C(NC/C=C/CN1CCN(c2cccc(Cl)c2Cl)CC1)c1ccccc1	1.3	50.1	–
O=C(NCCCN1CCN(c2cccc(Cl)c2Cl)CC1)c1ccc2c(c1)Cc1ccccc1-2	199	396	–
O=C(NCCCCN1CCN(c2cccc(Cl)c2Cl)CC1)c1cnc2ccccc2n1	1.9	109	26.9

— ChEMBL document CHEMBL1136084, “N-(4-[4-(2,3-dichlorophenyl)piperazin-1-yl]butyl, butenyl and butynyl)arylcarboxamides as novel dopamine D(3) receptor antagonists” (Bioorg Med Chem Lett, 2003)
